Experimental data published in PMC11360180, “Enhancement of Antimicrobial Function by L/D-Lysine Substitution on a Novel Broad-Spectrum Antimicrobial Peptide, Phylloseptin-TO2: A Structure-Related Activity Research Study” (Pharmaceutics, 2024).
Where a SMILES comes first, the peptide text is derived from it. Where no end group is shown, it is not given here. [ ]: non-standard residue; d: D form.

Experiments:
[1] = system: P. aeruginosa (ATCC 9027); type: cell-based, Pseudomonas aeruginosa; settings: ATCC 9027, 24 h
Excerpt: (§1) Seven microorganism strains were used to preliminarily evaluate the antimicrobial activity of PSTO2 and its analogues, including Staphylococcus aureus (S. aureus) (ATCC® 6538), methicillin-resistant Staphylococcus aureus (MRSA) (NCTC® 12493), Enterococcus faecalis (E. faecalis) (NCTC® 12697), E. coli (ATCC® 8739), Klebsiella pneumonia (K. pneumonia) (ATCC® 43816), Pseudomonas aeruginosa (P. aeruginosa) (ATCC® CRM 9027), Acinetobacter baumanni (A. baumanni) (BAA® 747), and Candida albicans (C. albicans) (ATCC® 10231). In this study, the strains were cultured in Mueller–Hinton broth (MHB), nutrient broth (NB), and yeast–peptone–dextrose broth (YPD-B) correspondingly at 37 °C, with shaking at 120 rpm. Each peptide was dissolved from 128 μM to 1 μM and mixed with the bacterium at 5 × 10^5 CFU/mL. In this process, bacteria with culture medium were used as the growth control group; PBS was set up as the vehicle control group; sterile culture medium was used as the blank control group; and Norfloxacin at a concentration of 2 mg/mL and amphotericin B at a concentration of 1 mg/mL were set up as the positive control group for bacteria and fungi, respectively.
(§2) After being incubated for 24 h, a Synergy HT plate reader (Bio-Tek, Shoreline, WA, USA) was used to detect the absorbance of each well in the 96-well plate at λ = 550 nm. The concentration at which no visible turbidity could be recorded was the MIC value. Beginning from the MIC value, 10 µL of solution in each clear well was dropped on the sterile agar plates. The plate was checked the next day for colony formation, and the lowest concentration at which no colony growing was recorded as an MBC value.

[2] = system: S. aureus (ATCC 6538); type: cell-based, Staphylococcus aureus; settings: ATCC 6538, 24 h
Excerpt: as §1, with “In this process, bacteria with culture medium were used as the growth control group; PBS was set up as the vehicle control group; sterile culture medium was used as the blank control group; and Norfloxacin at a concentration of 2 mg/mL and amphotericin B at a concentration of 1 mg/mL were set up as the positive control group for bacteria and fungi, respectively.” left out
as §2, with “value. […]” for “value. Beginning from the MIC value, 10 µL of solution in each clear well was dropped on the sterile agar plates.”, “value. […]” for “value.”

Molecule | MBC [1] [µM] | MIC [1] [µM] | MBC [2] [µM] | MIC [2] [µM]
CC[C@H](C)[C@H](NC(=O)[C@H](C)NC(=O)[C@@H](CCCCN)NC(=O)[C@@H]1CCCN1C(=O)[C@@H](NC(=O)[C@H](CC(C)C)NC(=O)[C@H](CO)NC(=O)[C@H](CC(C)C)NC(=O)[C@@H](N)Cc1ccccc1)[C@@H](C)CC)C(=O)N[C@@H](CCCCN)C(=O)N[C@@H](C)C(=O)N[C@H](C(=O)N[C@@H](CCCCN)C(=O)N[C@@H](C)C(=O)N[C@@H](CC(C)C)C(=O)N[C@@H](C)C(=O)N[C@@H](CCCCN)C(=O)N[C@H](CCCCN)C(=O)N[C@@H](CC(C)C)C(N)=O)C(C)C [SR2D10] (H-FLSLIP[dK]AIKAVKALAK[dK]L-NH2) | 32 | 32 |  | 
CC[C@H](C)[C@H](NC(=O)[C@H](C)NC(=O)[C@@H](CCCCN)NC(=O)[C@@H]1CCCN1C(=O)[C@@H](NC(=O)[C@H](CC(C)C)NC(=O)[C@H](CO)NC(=O)[C@H](CC(C)C)NC(=O)[C@@H](N)Cc1ccccc1)[C@@H](C)CC)C(=O)N[C@@H](CCCCN)C(=O)N[C@@H](C)C(=O)N[C@H](C(=O)N[C@@H](CO)C(=O)N[C@@H](C)C(=O)N[C@@H](CC(C)C)C(=O)N[C@@H](C)C(=O)N[C@@H](CCCCN)C(=O)N[C@@H](CCCCN)C(=O)N[C@@H](CC(C)C)C(N)=O)C(C)C [SRD7] (H-FLSLIP[dK]AIKAVSALAKKL-NH2) | 16 | 16 |  | 
FLSLIPKAIKAVKALAKKL-NH2 [SR2] | 32 |  | 2 | 2
FLSLIPKAIKAVSALAKKL-NH2 [SR] | 32 |  |  | 
